Assay: Rat feeding trial (Ratten-Fütterungsversuch), Beispiel A
Format: in vivo
Settings: Dosis 100 ppm in feed ad lib; female SPF Wistar rats, 90-110 g; 13-day trial; control without active substance = 100
Description: Weibliche Laborratten 90-110 g schwer vom Typ SPF Wistar (Züchtung Hagemann) werden ad lib mit Standard Rattenfutter, das mit der gewünschten Menge Wirkstoff versetzt ist, gefüttert. Jeder Versuchsansatz wird mit Futter der identischen Charge durchgeführt, so daß Unterschiede in der Zusammensetzung des Futters die Vergleichbarkeit der Ergebnisse nicht beeinträchtigen können.
Die Ratten erhalten Wasser ad lib.
Jeweils 12 Ratten bilden eine Versuchsgruppe und werden mit Futter, das mit der gewünschten Menge Wirkstoff versetzt ist gefüttert. Eine Kontrollgruppe erhält Futter ohne Wirkstoff. Das durchschnittliche Körpergewicht sowie die Streuung in den Körpergewichten der Ratten ist in jeder Versuchsgruppe gleich, so daß eine Vergleichbarkeit der Versuchsgruppen untereinander gewährleistet ist.
Während des 13-tägigen Versuchs werden Gewichtszunahme und Futterverbrauch bestimmt.

| SMILES | Gewichtszunahme |
| --- | --- |
| CC(C)(C)NCC(O)c1cnc(N)c(Cl)c1 (stereo not shown) [compound 3] | 115 |
| CC(C)NCC(O)c1ccc(N)cn1 (stereo not shown) [compound 7] | 120 |
| CC(C)(C)NCC(O)c1ccc(N)c(Cl)n1 (stereo not shown) [compound 6] | 110 |
| CC(C)(C)NCC(O)c1cc(Cl)nc(Cl)c1 (stereo not shown) [compound 1] | 110 |
